Legend:
[1] = test system: AT1; test: AT1 binding assay; conditions: at 10^-5 M concentration
[2] = test system: angiotensin type 2 (AT2); test: AT2 binding assay (rabbit uterus binding assay); conditions: AT2 versus AT1
Text: (§1) A typical compound active in a rabbit uterus binding assay for detecting angiotensin type 2 (AT2) antagonists is compound 6 below. AT2 Binding Assay is a modification of the procedure by D. T. Dudley, et al, Mol. Pharmacol. 38:370 (1990) .

[3] = biological target: T1, angiotensin type 2 (AT2) (Oryctolagus cuniculus, UniProt G1T351); test: AT2 binding assay (rabbit uterus binding assay); conditions: for IC50: rabbit uterus binding assay
T1 construct: from tissue; host or cells: rabbit uterus
T1 sequence (G1T351 1-363): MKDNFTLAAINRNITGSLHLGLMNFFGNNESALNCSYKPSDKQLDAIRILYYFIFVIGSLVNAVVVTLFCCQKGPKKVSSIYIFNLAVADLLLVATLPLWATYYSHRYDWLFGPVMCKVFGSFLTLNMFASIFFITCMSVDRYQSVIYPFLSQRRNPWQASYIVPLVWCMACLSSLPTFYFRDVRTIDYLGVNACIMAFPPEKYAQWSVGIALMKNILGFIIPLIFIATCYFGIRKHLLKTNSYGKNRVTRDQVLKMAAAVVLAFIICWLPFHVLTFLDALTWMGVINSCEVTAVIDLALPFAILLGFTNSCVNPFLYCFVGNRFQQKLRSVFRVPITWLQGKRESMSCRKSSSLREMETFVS
Text: as §1

[4] = test system: AT-1 receptors; conditions: cited from earlier work

Structure (SMILES)	IC50 [3] [nM]	also measured
COc1ccc2c(c1OCc1ccccc1)CC(C(=O)O)N(C(=O)C(c1ccccc1)c1ccccc1)C2 (racemic) [Example 20, (RS)-2-(Diphenylacetyl)-1,2,3,4-tetrahydro-6-methoxy-5-(phenylmethoxy)-3-isoquinolinecarboxylic acid]	2.8	AT1 binding assay activity [1]: inactive; selectivity for the AT2 site [2]: highly selective for the AT2 site; binding affinity for the AT2 receptor site, in words [3]: high binding affinity
COc1cc2c(cc1OCc1ccccc1)CC(C(=O)O)N(C(=O)C(c1ccccc1)c1ccccc1)C2 (racemic) [Example 21, (RS)-2-(Diphenylacetyl)-1,2,3,4-tetrahydro-7-methoxy-6-(phenylmethoxy) -3-isoquinolinecarboxylic acid]	58.5	
COc1ccc2c(c1OCCc1ccccc1)CC(C(=O)O)N(C(=O)C(c1ccccc1)c1ccccc1)C2 (racemic) [Example 22, (RS)-2-(Diphenylacetyl)-1,2,3,4-tetrahydro-6-methoxy-5-(2-phenylethoxy)-3-isoquinolinecarboxylic acid]	8.9	
COc1ccc2c(c1OCc1ccccc1)CC(C(=O)O)N(C(=O)C(c1ccc(Cl)cc1)c1ccc(Cl)cc1)C2 (racemic) [Example 23, (RS)-2-[Bis(4-chlorophenyl)acetyl]-1,2,3,4-tetrahydro-6-methoxy-5-(phenylmethoxy)-3-isoquinolinecarboxylic acid]	24.2	
COc1ccc2c(c1OCc1ccccc1)CC(C(=O)O)N(C(=O)C(c1ccccc1)C1CCCC1)C2 (racemic) [Example 24, (RS)-2-(Cyclopentylphenylacetyl)-1,2,3,4-tetrahydro-6-methoxy-5-(phenylmethoxy)-3-isoquinolinecarboxylic acid]	1.6	
COc1ccc2c(c1OCc1ccccc1)CC(C(=O)O)N(C(=O)Cc1c(Cl)cccc1Cl)C2 (racemic) [Example 25, (RS)-2-[(2,6-Dichlorophenyl)acetyl]-1,2,3,4-tetrahydro-6-methoxy-5-(phenylmethoxy)-3-isoquinolinecarboxylic acid]	117	
COc1ccc2c(c1OCc1ccccc1)CC(C(=O)O)N(C(=O)N(C)c1ccccc1)C2 (racemic) [Example 26]	8.4	
CCCCc1nc(Cl)c(CO)n1Cc1ccc(-c2ccccc2-c2nn[nH]n2)cc1 [Dup753]		selective antagonism of AT-1 receptors [4]: selectively antagonized

Now from value to molecule, other results behind:

IC50 [3] [nM]	Structure (SMILES)	also measured
1110	COc1ccc(NC(=O)N2Cc3ccc(OC)c(OCc4ccccc4)c3CC2C(=O)O)cc1 (racemic) [Example 27, (RS)-1,2,3,4-Tetrahydro-6-methoxy-2-[[(4-methoxyphenyl)amino]carbonyl]-5-(phenylmethoxy)-3-isoguinolinecarboxylic acid]	
151	CCOC(=O)C1Cc2c(ccc(OC)c2OCc2ccccc2)CN1C(=O)C(c1ccccc1)c1ccccc1 (racemic) [Example 30, (RS)-2-(Diphenylacetyl)-1,2,3,4-tetrahydro-6-methoxy-5-phenylmethoxy-3-isoquinolinecarboxylic acid, ethyl ester]	
752	COc1ccc2c(c1OCc1ccc(C(=O)O)cc1)CC(C(=O)O)N(C(=O)C(c1ccccc1)c1ccccc1)C2 (racemic) [Example 33, (RS)-5-(4-Carboxyphenylmethoxy)-2-(diphenylacetyl)-1,2,3,4-tetrahydro-6-methoxy-3-isoquinolinecarboxylic acid]	
1.9	COc1ccc(COc2c(OC)ccc3c2CC(C(=O)O)N(C(=O)C(c2ccccc2)c2ccccc2)C3)cc1C (racemic) [Example 35]	

Source: US5350757A, “Substituted 1,2,3,4-tetrahydroisoquinolines with angiotensin II receptor antagonist properties” (Warner-Lambert Company, priority 1993, dated 1994)
